tested on: 4th stage larvae (L4) of Dirofilaria immitis; test: Dirofilaria immitis, L4 Stage (DiL4) In Vitro Assay; type: cell-based; conditions: Dirofilaria immitis, 72 h, read-out: DiL4 Minimum Effective Dose (MED), approximately 72 hours incubation; L4 larvae assessed for survival or paralysis

Q: CC(C)C[C@H]1C(=O)O[C@H](Cc2ccc(Cn3nc(C#N)cc3C#N)cc2)C(=O)N(C)[C@@H](CC(C)C)C(=O)O[C@H](C)C(=O)N(C)[C@@H](CC(C)C)C(=O)O[C@H](Cc2ccc(Cn3cc(Br)c(C#N)n3)cc2)C(=O)N(C)[C@@H](CC(C)C)C(=O)O[C@H](C)C(=O)N1C [Example 1a-1, 1-(4-(((2R,5S,8R,11S,14R,17S,20R,23S)-14-(4-((4-bromo-3-cyano-1H-pyrazol-1-yl)methyl)benzyl)-5,11,17,23-tetraisobutyl-4,8,10,16,20,22-hexamethyl-3,6,9,12,15,18,21,24-octaoxo-1,7,13,19-tetraoxa-4,10,16,22-tetraazacyclotetracosan-2-yl)methyl)benzyl)-1H-pyrazole-3,5-dicarbonitrile] was tested. Which minimal effective concentration did it give?
A: 0.0001 to 0.001 µM

Q: Cc1nn(Cc2ccc(C[C@H]3OC(=O)[C@H](CC(C)C)N(C)C(=O)[C@@H](C)OC(=O)[C@H](CC(C)C)N(C)C(=O)[C@@H](Cc4ccc(Cn5nc(C)c(Cl)c5C)cc4)OC(=O)[C@H](CC(C)C)N(C)C(=O)[C@@H](C)OC(=O)[C@H](CC(C)C)N(C)C3=O)cc2)c(C)c1Cl [Example 1b-51, (3S,6R,9S,12R,15S,18R,21S,24R)-6,18-bis(4-((4-chloro-3,5-dimethyl-1H-pyrazol-1-yl)methyl)benzyl)-3,9,15,21-tetraisobutyl-4,10,12,16,22,24-hexamethyl-1,7,13,19-tetraoxa-4,10,16,22-tetraazacyclotetracosan-2,5,8,11,14,17,20,23-octaone] was tested. Which minimal effective concentration did it give?
A: 0.0001 to 0.001 µM

Q: How did the minimal effective concentration turn out when CC(C)C[C@H]1C(=O)O[C@H](Cc2ccc(Cn3cc(OCC4CC4)cn3)cc2)C(=O)N(C)[C@@H](CC(C)C)C(=O)O[C@H](C)C(=O)N(C)[C@@H](CC(C)C)C(=O)O[C@H](Cc2ccc(Cn3cc(OCC4CC4)cn3)cc2)C(=O)N(C)[C@@H](CC(C)C)C(=O)O[C@H](C)C(=O)N1C [Example 1b-146, (3S,6R,9S,12R,15S,18R,21S,24R)-6,18-bis(4-((4-(cyclopropylmethoxy)-1H-pyrazol-1-yl)methyl)benzyl)-3,9,15,21-tetraisobutyl-4,10,12,16,22,24-hexamethyl-1,7,13,19-tetraoxa-4,10,16,22-tetraazacyclotetracosan-2,5,8,11,14,17,20,23-octaone] was run?
A: 0.001 to 0.01 µM

Q: With CC(C)C[C@H]1C(=O)O[C@H](Cc2ccc(Cn3nccc3-c3ccc(Cl)cc3)cc2)C(=O)N(C)[C@@H](CC(C)C)C(=O)O[C@H](C)C(=O)N(C)[C@@H](CC(C)C)C(=O)O[C@H](Cc2ccc(Cn3nccc3-c3ccc(Cl)cc3)cc2)C(=O)N(C)[C@@H](CC(C)C)C(=O)O[C@H](C)C(=O)N1C [Example 1b-153, (3S,6R,9S,12R,15S,18R,21S,24R)-6,18-bis(4-((5-(4-chlorophenyl)-1H-pyrazol-1-yl)methyl)benzyl)-3,9,15,21-tetraisobutyl-4,10,12,16,22,24-hexamethyl-1,7,13,19-tetraoxa-4,10,16,22-tetraazacyclotetracosan-2,5,8,11,14,17,20,23-octaone] as the compound, how does the minimal effective concentration read?
A: 0.001 to 0.01 µM

Q: For COc1cc(C)n(Cc2ccc(C[C@H]3OC(=O)[C@H](CC(C)C)N(C)C(=O)[C@@H](C)OC(=O)[C@H](CC(C)C)N(C)C(=O)[C@@H](Cc4ccc(Cn5nc(OC)cc5C)cc4)OC(=O)[C@H](CC(C)C)N(C)C(=O)[C@@H](C)OC(=O)[C@H](CC(C)C)N(C)C3=O)cc2)n1 [Example 1b-168, (3S,6R,9S,12R,15S,18R,21S,24R)-3,9,15,21-tetraisobutyl-6,18-bis(4-((3-methoxy-5-methyl-1H-pyrazol-1-yl)methyl)benzyl)-4,10,12,16,22,24-hexamethyl-1,7,13,19-tetraoxa-4,10,16,22-tetraazacyclotetracosan-2,5,8,11,14,17,20,23-octaone], which minimal effective concentration is on record?
A: 0.001 to 0.01 µM

Q: Which minimal effective concentration does the source give for CCOc1cc(-c2ccccc2)nn1Cc1ccc(C[C@H]2OC(=O)[C@H](CC(C)C)N(C)C(=O)[C@@H](C)OC(=O)[C@H](CC(C)C)N(C)C(=O)[C@@H](Cc3ccc(Cn4nc(-c5ccccc5)cc4OCC)cc3)OC(=O)[C@H](CC(C)C)N(C)C(=O)[C@@H](C)OC(=O)[C@H](CC(C)C)N(C)C2=O)cc1 [Example 1b-178, (3S,6R,9S,12R,15S,18R,21S,24R)-6,18-bis(4-((5-ethoxy-3-phenyl-1H-pyrazol-1-yl)methyl)benzyl)-3,9,15,21-tetraisobutyl-4,10,12,16,22,24-hexamethyl-1,7,13,19-tetraoxa-4,10,16,22-tetraazacyclotetracosan-2,5,8,11,14,17,20,23-octaone] here?
A: 0.001 to 0.01 µM

Q: Cc1cc(C#N)nn1Cc1ccc(C[C@H]2OC(=O)[C@H](CC(C)C)N(C)C(=O)[C@@H](C)OC(=O)[C@H](CC(C)C)N(C)C(=O)[C@@H](Cc3ccc(Cn4nc(C#N)cc4C)cc3)OC(=O)[C@H](CC(C)C)N(C)C(=O)[C@@H](C)OC(=O)[C@H](CC(C)C)N(C)C2=O)cc1 [Example 1b-194, 1,1′-(((((2R,5S,8R,11S,14R,17S,20R,23S)-5,11,17,23-tetraisobutyl-4,8,10,16,20,22-hexamethyl-3,6,9,12,15,18,21,24-octaoxo-1,7,13,19-tetraoxa-4,10,16,22-tetraazacyclotetracosane-2,14-diyl)bis(methylene))bis(4,1-phenylene))bis(methylene))bis(5-methyl-1H-pyrazole-3-carbonitrile)] was tested. Which minimal effective concentration did it give?
A: 0.0001 to 0.001 µM

Q: CC(C)C[C@H]1C(=O)O[C@H](Cc2ccc(C(C)(C)n3cc(C4CC4)cn3)cc2)C(=O)N(C)[C@@H](CC(C)C)C(=O)O[C@H](C)C(=O)N(C)[C@@H](CC(C)C)C(=O)O[C@H](Cc2ccc(C(C)(C)n3cc(C4CC4)cn3)cc2)C(=O)N(C)[C@@H](CC(C)C)C(=O)O[C@H](C)C(=O)N1C [Example 1c-8, (3S,6R,9S,12R,15S,18R,21S,24R)-6,18-bis(4-(2-(4-cyclopropyl-1H-pyrazol-1-yl)propan-2-yl)benzyl)-3,9,15,21-tetraisobutyl-4,10,12,16,22,24-hexamethyl-1,7,13,19-tetraoxa-4,10,16,22-tetraazacyclotetracosan-2,5,8,11,14,17,20,23-octaone] was tested. Which minimal effective concentration did it give?
A: ≤ 0.0001 µM

Q: CC(C)C[C@H]1C(=O)O[C@H](Cc2ccc(Cn3ccnc3C(F)(F)F)cc2)C(=O)N(C)[C@@H](CC(C)C)C(=O)O[C@H](C)C(=O)N(C)[C@@H](CC(C)C)C(=O)O[C@H](Cc2ccc(Cn3ccnc3C(F)(F)F)cc2)C(=O)N(C)[C@@H](CC(C)C)C(=O)O[C@H](C)C(=O)N1C [Example 6-15, (3S,6R,9S,12R,15S,18R,21S,24R)-3,9,15,21-tetraisobutyl-4,6,10,16,18,22-hexamethyl-12,24-bis(4-((2-(trifluoromethyl)-1H-imidazol-1-yl)methyl)benzyl)-1,7,13,19-tetraoxa-4,10,16,22-tetraazacyclotetracosan-2,5,8,11,14,17,20,23-octaone] was tested. Which minimal effective concentration did it give?
A: 0.0001 to 0.001 µM

Q: CC(C)C[C@H]1C(=O)O[C@H](Cc2ccc(CN3CCOc4ccncc43)cc2)C(=O)N(C)[C@@H](CC(C)C)C(=O)O[C@H](C)C(=O)N(C)[C@@H](CC(C)C)C(=O)O[C@H](Cc2ccc(CN3CCOc4ccncc43)cc2)C(=O)N(C)[C@@H](CC(C)C)C(=O)O[C@H](C)C(=O)N1C [Example 9-63, (3S,6R,9S,12R,15S,18R,21S,24R)-6,18-bis[[4-(2,3-dihydropyrido[4,3-b][1,4]oxazin-4-ylmethyl)phenyl]methyl]-3,9,15,21-tetraisobutyl-4,10,12,16,22,24-hexamethyl-1,7,13,19-tetraoxa-4,10,16,22-tetrazacyclotetracosane-2,5,8,11,14,17,20,23-octaone] was tested. Which minimal effective concentration did it give?
A: 0.001 to 0.01 µM

tested on: microfilariae of Dirofilaria immitis; test: Dirofilaria immitis, Microfilaria (DiMF) In vitro Assay; type: cell-based; conditions: 72 h, read-out: DiMF Minimum Effective Dose (MED), approximately 72 hours incubation, microfilariae assessed for survival or paralysis

Q: CC(C)C[C@H]1C(=O)O[C@H](Cc2ccc(Cn3nc(C#N)cc3C#N)cc2)C(=O)N(C)[C@@H](CC(C)C)C(=O)O[C@H](C)C(=O)N(C)[C@@H](CC(C)C)C(=O)O[C@H](Cc2ccc(Cn3cc(Br)c(C#N)n3)cc2)C(=O)N(C)[C@@H](CC(C)C)C(=O)O[C@H](C)C(=O)N1C [Example 1a-1, 1-(4-(((2R,5S,8R,11S,14R,17S,20R,23S)-14-(4-((4-bromo-3-cyano-1H-pyrazol-1-yl)methyl)benzyl)-5,11,17,23-tetraisobutyl-4,8,10,16,20,22-hexamethyl-3,6,9,12,15,18,21,24-octaoxo-1,7,13,19-tetraoxa-4,10,16,22-tetraazacyclotetracosan-2-yl)methyl)benzyl)-1H-pyrazole-3,5-dicarbonitrile] was tested. Which minimal effective concentration did it give?
A: 0.001 to 0.01 µM

Source: US11331369B2, “Endoparasitic depsipeptides” (Zoetis Services LLC, priority 2017, dated 2022)
